Reference: patent US20230203058A1, “MACROCYCLIC DIAMINE DERIVATIVES AS ENT INHIBITORS FOR THE TREATMENT OF CANCERS, AND COMBINATION THEREOF WITH ADENOSINE RECEPTOR ANTAGONISTS” (ITEOS BELGIUM SA, priority 2020, published 2023)
Where two headings read alike, the source gives them in different places.

Legend:
[1] = system: stimulated primary human T cells; assay: T cell proliferation assay (rescue of proliferation in presence of ATP, CFSE dilution); format: cell-based; settings: 100 uM ATP
Protocol: The aim of this study was to determine the potency of equilibrative nucleoside transporter 1 (ENT1) inhibitors to rescue proliferation by stimulated primary human T cells incubated in the presence of 100 uM Adenosine triphosphate (ATP), in baseline conditions (condition A) or in the presence of various proteins known to bind small molecules (condition B). Condition A: X-VIVO15 Condition B: X-VIVO15, 2% Human Serum Albumine (HSA) and 0,1% α-1-Acid Glycoprotein (AAG)
Cryopreserved purified human CD3+ T cells were thawed and washed twice with RPMI1640 medium, UltraGlutamine containing 10% hiFBS.
Cells were suspended in PBS containing 10% hiFBS. Cells were stained with CFSE by adding 2 µM solution in PBS, to get a final 1 µM CFSE solution. Cells were incubated while rotating for 5 minutes. Reaction was stopped by adding PBS with 10% FBS and cells were centrifuged for 5 minutes at 1500 rpm.
Cells were resuspended at 1.6 ×10^6 cells/mL, either in X-VIVO15 medium or in 4% Human Serum Albumin and 0,2% α-1-Acid Glycoprotein. 50 µL of cell suspension (8×10^4 T cells) was added to wells of sterile round-bottom 96-well plates. Cells were activated by adding 50 µL of anti-CD3 anti-CD28 coated microbeads, suspended either in XVIVO-15 medium or in 4% HSA and 0,2% α-1-Acid Glycoprotein, at a ratio of one microbead per two cells. Serial dilutions of the ENT1 inhibitors were prepared in X-VIVO15 from 10 mM stock solutions in DMSO, and 50 µL was added to the wells. ATP powder was diluted in X-VIVO15, and 50 µL of this compound was added to the wells to reach a final assay concentration of 100 µM. Final volume of 200 µL. The experiments were also performed in 384 well plates - all volumes reduced by a factor of 4 (12,5 µL) with a final volume of 50 µL. Experiments were performed in duplicate. The cells were placed in a 37° C. humidified tissue culture incubator with 5% CO2 for 72 hours for 96 well plates, 96 hours for 384 well plates. After 72 or 96 hours, proliferation was measured determined by CFSE dilution via flow cytometry.

human ENT1 [2] = biological target: T1, human ENT1 (Homo sapiens, UniProt Q99808); assay: ENT1 binding assay (competition with Sahenta-DY647 on JAR cells); set-up: JAR cells expressing ENT1 were bought from ATCC® (HTB-144TM); host or cells: JAR cells (human choriocarcinoma line; whole cells); settings: competition with Sahenta-DY647 100 nM, 4° C.
T1 sequence (Q99808 1-456): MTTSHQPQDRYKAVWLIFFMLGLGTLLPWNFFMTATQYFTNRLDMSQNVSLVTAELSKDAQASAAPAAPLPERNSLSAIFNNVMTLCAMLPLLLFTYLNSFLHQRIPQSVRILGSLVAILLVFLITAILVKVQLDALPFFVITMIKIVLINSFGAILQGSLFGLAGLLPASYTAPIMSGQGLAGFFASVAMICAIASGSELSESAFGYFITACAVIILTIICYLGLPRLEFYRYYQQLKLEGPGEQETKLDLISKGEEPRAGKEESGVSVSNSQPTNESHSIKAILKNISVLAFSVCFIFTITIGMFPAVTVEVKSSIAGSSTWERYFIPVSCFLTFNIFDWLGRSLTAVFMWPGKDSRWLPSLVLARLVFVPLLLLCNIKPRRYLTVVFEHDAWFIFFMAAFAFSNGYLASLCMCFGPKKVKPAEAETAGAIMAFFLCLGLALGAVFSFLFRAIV
Outline: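 Competition binding on intact JAR cells (50000 per well) in HBSS with 10 mM Hepes and 0.1% BSA. Cells pre-incubated with compound 30 min at 4 °C, then Sahenta-DY647 added at its IC90 (100 nM) for another 30 min at 4 °C; after washing, fluorescence read at Ex 630/Em 670 nm.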

human ENT1 [3] = biological target: T1, human ENT1; assay: Uridine transport inhibition assay (3H-uridine uptake in MDCKII-ENT1-LV cells); format: cell-based; settings: uridine 1 µM, 1 min at 25° C.
Text: The aim of this study was to determine the potency of equilibrative nucleoside transporter 1 (ENT1) inhibitors by measuring ENT1-mediated transport is the cellular uptake assay. The human ENT1 transporter can be stably expressed in Madin-Darby Canine Kidney II (MDCKII) cells via transduction. Uridine is efficiently transported by ENT1 and is used as probe in the assay as 3 H-uridine. The interaction is detected as the modulation of the initial rate of 3 H-uridine transport by human ENT1 into MDCKII-ENT1-LV cells stably expressing ENT1 uptake transporter.

hERG ion channel = biological target: T2, hERG ion channel (Homo sapiens, UniProt Q12809); assay: hERG ion channel inhibition (Patchliner automated patch-clamp, CHO cells); format: cell-based; settings: whole-cell, room temperature, 6-point curve up to 100 µM
T2 construct: Chinese Hamster Ovary cell lines stably expressing the full-length ion channel; expressed in transfected cells
T2 sequence (Q12809 whole entry): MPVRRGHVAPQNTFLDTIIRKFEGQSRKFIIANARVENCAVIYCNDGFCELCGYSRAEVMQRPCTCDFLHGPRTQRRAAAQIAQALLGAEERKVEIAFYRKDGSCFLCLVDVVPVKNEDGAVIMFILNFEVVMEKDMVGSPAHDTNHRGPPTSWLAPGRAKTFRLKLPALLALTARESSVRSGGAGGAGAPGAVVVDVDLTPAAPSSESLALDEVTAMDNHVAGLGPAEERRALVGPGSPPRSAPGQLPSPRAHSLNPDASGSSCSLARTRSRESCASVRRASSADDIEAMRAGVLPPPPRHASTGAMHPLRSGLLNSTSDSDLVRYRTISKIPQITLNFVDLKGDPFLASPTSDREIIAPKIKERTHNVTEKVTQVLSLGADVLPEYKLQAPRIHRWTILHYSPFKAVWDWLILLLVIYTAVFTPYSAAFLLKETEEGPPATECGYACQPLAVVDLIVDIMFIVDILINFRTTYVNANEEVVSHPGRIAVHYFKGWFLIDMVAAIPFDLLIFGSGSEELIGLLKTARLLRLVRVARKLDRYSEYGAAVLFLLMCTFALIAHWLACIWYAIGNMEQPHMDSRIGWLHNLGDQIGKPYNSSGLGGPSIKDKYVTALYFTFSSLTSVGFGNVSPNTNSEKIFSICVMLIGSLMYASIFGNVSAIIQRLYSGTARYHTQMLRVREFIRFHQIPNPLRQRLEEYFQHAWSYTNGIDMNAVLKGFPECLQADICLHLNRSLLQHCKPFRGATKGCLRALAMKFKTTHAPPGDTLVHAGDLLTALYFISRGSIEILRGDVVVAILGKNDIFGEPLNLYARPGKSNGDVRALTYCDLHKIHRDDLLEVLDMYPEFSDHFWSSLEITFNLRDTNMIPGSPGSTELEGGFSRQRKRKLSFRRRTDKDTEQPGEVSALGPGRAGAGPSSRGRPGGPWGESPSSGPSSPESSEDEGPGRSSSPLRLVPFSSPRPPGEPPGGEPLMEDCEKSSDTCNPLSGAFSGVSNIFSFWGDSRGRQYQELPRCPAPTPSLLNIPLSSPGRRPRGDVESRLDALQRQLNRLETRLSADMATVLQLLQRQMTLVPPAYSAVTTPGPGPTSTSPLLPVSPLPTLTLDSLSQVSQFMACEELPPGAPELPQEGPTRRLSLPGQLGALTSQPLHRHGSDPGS
Protocol: The compounds were tested for inhibition of hERG ion channel. 6-Point concentration-response curves were generated on the Patchliner automated patch-clamp using serial dilutions from a maximum test concentration of 100 µM.
Compounds were solubilised to 33 mM in DMSO before dilution in HBPS to 100 µM. 6-Point concentration-response curves were generated using serial dilutions from the top test concentration. Electrophysiological recordings were made from a Chinese Hamster Ovary cell lines stably expressing the full-length ion channel. Single cell ionic currents were measured in whole-cell configuration at room temperature (21-23° C.) using a Patchliner (Nanion Technologies). The internal solution for hERG contained (mM): 120 KF, 20 KCl, 10 EGTA, 10 HEPES and was buffered to pH 7.3. The external solution (HEPES-buffered saline, HBPS) contained (mM): 138 NaCl, 4.5 KCl, 1.8 CaC12, 1.0 MgC12, 10 HEPES, 10 glucose, buffered to pH7.4. Cells were clamped at a holding potential of -80 mV before a depolarising step appropriate for the hERG channel. Currents were measured from the step and referenced to the holding current. Compounds were incubated for 90 seconds. Concentration-response curves were generated by cumulative addition of compound with concentrations low to high. In all cases, steady-state inhibition was achieved before the next concentration of compound was added.
IC50 values were obtained from a 4-parameter logistic fit of the concentration-response data: […]

human T cells = assay: T cell stimulation assay (Example III, FIG. 1); format: cell-based; settings: ATP 100 µM
Protocol: FIG. 1A depicts a graph of log concentration (M) versus percent proliferation. Purified human T cells were activated with anti-CD3/CD28 dynabeads in the presence of ATP (100 µM) as a source of adenosine for 96 h and then proliferation was assessed by CFSE dilution.
FIG. 1B depicts a graph of log concentration of ENT1 inhibitor (M) versus percent proliferation. Experiment performed as in FIG. A with the addition of HSA and AAG to the culture medium (final concentration 2 and 0.1%, respectively).
Peripheral blood mononuclear cells (PBMCs) were first isolated via centrifugation of fresh whole blood over Lymphoprep using SepMate-50 tubes (both from […] Technologies) according to the manufacturer’s instructions. Human T cells were then isolated from the PBMCs using the EasySep Human T cell Isolation Kit ([…] Technologies) according to the manufacturer’s instructions and the cells were cryopreserved in FBS with 10% DMSO until required.
Cryopreserved human T cells were thawed on the day of the experiment and resuspended in PBS with 10% FBS at approximately 1 × 10^7 cells/ml. This cell suspension was diluted 1:1 with 2 µM CFSE solution (ThermoFisher Scientific) in PBS and incubated for 5 minutes at room temperature. The labelling reaction was quenched by further addition of PBS with 10% FBS, and then the cells were washed into X-VIVO15 medium (Lonza) for use in the T cell assay.
CFSE-labelled T cells were plated at 2 × 10^4 cells per well in 384 well plates in the presence of ATP (100 µM, Sigma-Aldrich) as a source of adenosine. Activation was driven by the addition of Dynabeads Human T-Activator CD3/CD28 (ThermoFisher Scientific) at a ratio of 0,5 beads per T cell. ENT1 inhibitor molecules including the reference molecule dilazep (Tocris Bioscience) were added, the volume of the wells was adjusted to 50 µl with X-VIVO15 medium and the plates were cultured in a humidified incubator for 96 h at 37° C. with 5% CO2. In some experiments the culture was supplemented with human serum albumin (HSA) and alpha-1-acid glycoprotein (AAG, both Sigma-Aldrich) at final concentrations of 2 and 0,1%, respectively.
Analysis of proliferation via CSFE dilution was performed by flow cytometry using a BD LSR Fortessa with data analysis on FlowJo (BD Biosciences).

MCA205 cells = assay: Syngeneic fibrosarcoma model (MCA205, FIG. 4); format: in vivo, C57BL/6 mice
Protocol: FIG. 4 consists of three graphs: A, B, and C depicting the evalution of to assess the anti-tumor efficacy of compound Compound 8 in syngeneic fibrosarcoma model.
To assess the anti-tumor efficacy of compound Compound 8 in syngeneic fibrosarcoma model, C57BL/6 (n=8) were subcutaneously inoculated with […] MCA205 cells in the right flank. At day 8 after inoculation the mice were randomized according tumor size and received oral treatment of Compound 8 at 10 mg/kg or its vehicle. The mice were monitored 3 times a week for tumor measurements, and the data plotted below. […] (FIG. 4B and FIG. 4C) At day 21 after inoculation, 57% of the mice treated with 10 mg/kg of Compound 8 were responsive to Compound 8 treatment and at day 31 15% of the mice presented significant tumor growth delay with tumors below 1000 mm^3. The statistical analysis was performed in JMP software using linear fixed model.

[4] = Condition A: X-VIVO15, read-out: T Cell proliferation (Condition A) IC50
[5] = Condition B: X-VIVO15, 2% HSA and 0,1% AAG, read-out: (2) T Cell proliferation (Condition B) IC50

IC50 (human ENT1 [2])	IC50 (human ENT1 [3])	SMILES	IC50 [1, 4]	IC50 [1, 5]	IC50 (hERG ion channel)	IC50 (human T cells; anti-CD3/CD28 dynabeads, 96 h (FIG. 1A), read-out: IC50 of restoration of T cell proliferation)	IC50 (human T cells; with HSA 2% and AAG 0,1% (FIG. 1B), read-out: IC50 of restoration of T cell proliferation under high protein binding conditions)	Median tumor growth kinetics versus vehicle (MCA205 cells; 10 mg/kg oral (FIG. 4A))	Mice responsive to treatment (MCA205 cells; 10 mg/kg oral, day 21 after inoculation)	Mice with significant tumor growth delay, tumors below 1000 mm^3 (MCA205 cells; 10 mg/kg oral, day 31 after inoculation)
1 to 20 nM	1 to 20 nM	COc1cc(C(=O)O[C@@H]2CCCOc3cc(cc(OC)c3OC)C(=O)N(C)CCCN3CCCN(CC2)CC3)cc(OC)c1OC [Compound 13, (12R)-74,75-dimethoxy-5-methyl-6-oxo-8-oxa-5-aza-1(1,4)-diazepana-7(1,3)-benzenacyclotetradecaphane-12-yl 3,4,5-trimethoxybenzoate]	1 to 20 nM	> 500 nM						
1 to 20 nM	1 to 20 nM	COc1cc(C(=O)O[C@@H]2CCCOc3cc(cc(OC)c3OC)C(=O)NCCCN3CCCN(CC2)CC3)cc(OC)c1OC [Compound 10, (12R)-74,75-dimethoxy-6-oxo-8-oxa-5-aza-1(1,4)-diazepana-7(1,3)-benzenacyclotetradecaphane-12-yl 3,4,5-trimethoxybenzoate]	1 to 20 nM	20 to 500 nM	3400 nM					
1 to 20 nM	1 to 20 nM	COc1cc(C(=O)OC2CCCOc3cc(cc(OC)c3OC)C(=O)OCCCN3CCN(CC2)CC(F)(F)C3)cc(OC)c1OC (centres unmarked) [Compound 4, 16,16-difluoro-74,75-dimethoxy-6-oxo-5,8-dioxa-1(1,4)-diazepana-7(1,3)-benzenacyclotetradecaphane-12-yl 3,4,5-trimethoxybenzoate]	< 1 nM	1 to 20 nM	73000 nM					
1 to 20 nM		COc1cc(C(=O)OC2CCCOc3cc(cc(OC)c3OC)C(=O)NCCCN3CCCN(CC2)CC3)cc(OC)c1OC (centres unmarked) [Compound 8, 74,75-dimethoxy-6-oxo-8-oxa-5-aza-1(1,4)-diazepana-7(1,3)-benzenacyclotetradecaphane-12-yl 3,4,5-trimethoxybenzoate]				2 nM	16 nM	slight change in tumor size	57%	15%
